We go through 1 molecule from US20240262845A1, “PYRIDINIUM SALTS, METHODS OF MAKING, AND METHODS OF USE” (UNIVERSITY OF WYOMING, priority 2023, published 2024).

In the test the test system is HEK293T lysates. Description: Chemoproteomic profiling of HEK293T lysates (protein-level enrichment). In kind it is biochemical, human. How it is done: In lysate tryptophan probe treatment for protein-level characterization: HEK293T cell pellets were suspended in native lysis buffer (50 mM HEPES pH 7.5, 150 mM sodium chloride (NaCl), 1.5 mM MgCl2, 1 mM DTT, 0.8% NP-40, 5% glycerol, and 1× protease inhibitors (Thermo)) at 2× the pellet volume. The samples were sonicated on ice for 30 seconds at 20% amplitude with a 2 second pulse ON and 3 second pulse OFF. Cell debris was removed by centrifugation at 20,000×g for 20 minutes at 4° C. Protein concentration was determined by bicinchoninic acid (BCA) (Pierce) and diluted down to 5 mg/mL with ChemProt buffer (50 mM HEPES pH 7.5, 150 mM NaCl, 1.5 mM MgCl2, 1 mM DTT, 0.4% NP-40, and 1x protease inhibitors (Thermo). 5 mg cell lysates were treated with 100× stocks of the tryptophan probes (pyridinium salts 1a, 1b, and 2b) to generate final concentrations (0, 1, 10, and 100 μM) in 1% DMSO. Lysates were incubated for 1 hour at 4° C. followed by photo-activation at respective wavelengths for 20 minutes at 4° C. Excess probe was removed using Sephadex G-25 PD-10 desalting columns (GE Healthcare) pre-equilibrated with 50 mM HEPES pH 7.5, 150 mM NaCl, 1.5 mM MgCl2, and 0.4% NP-40. The samples were then treated with 100 μL Neutravidin resin as a 50% slurry (Peirce). The samples were incubated overnight on a rotating apparatus at R.T. The following day, the beads were transferred to a MobiCol column (Boca Scientific), washed 3× with phosphate buffered saline (PBS) containing 0.2% SDS, washed 3× with PBS, and the enriched proteins were eluted with 2× NuPAGE lithium dodecyl sulfate (LDS) containing 10 mM DTT (Pierce) and heated for 30 minutes at 55° C. The eluent was collected and subsequently treated with 20 mM iodoacetamide (Pierce) for 30 minutes at R.T. protected from light. Samples were passed through detergent removal columns (Pierce) that were pre-equilibrated with 50 mM HEPES pH 8.0. The samples were treated with 2.5 μg Trypsin/LysC (Promega) at 37° C. for 16 hours. The following day, the sample was collected and prepped for isobaric labeling with TMT reagents (Thermo) as specified by the manufacturer.
Quantitative proteomics by two-dimensional nano liquid chromatography-tandem mass spectrometry (nLC-MS/MS): For protein-level characterization, the TMT-labeled sample were reconstituted in 0.1% formic acid (FA)/2% acetonitrile for offline high-pH reversed phase separation (RP10) using a Dionex UltiMate 3000 high-performance liquid chromatography (HPLC) system with fraction collection using Chromeleon v.6.8 (Thermo) software. Separation was achieved on a Waters Xbridge C18 3.5 μm 2.1×150 mm HPLC column (Waters) using a flow rate of 250 μL min-1 and the following ternary gradient and conditions: mobile phase A=water (HPLC grade), mobile phase B=acetonitrile (HPLC grade), and mobile phase C=200 mM ammonium acetate, pH 10. Mobile phase C is held at 10% throughout gradient. Starting conditions are 89% mobile phase A and 1% mobile phase B, ramping mobile phase B to 80% over 65 min. Fractions were collected in 96-well plates at 100 sec per well. Fractions were reduced down to 12 fractions, dried, and reconstituted in 0.1% FA/2% acetonitrile for nLC-MS/MS. All data were acquired using a Orbitrap Fusion Lumos coupled to an Easy-nLC 1200 nanoflow liquid chromatograph operating at 300 nL min-1. Peptides were cleaned up using a 1 cm online custom trap then eluted on a custom 20 cm laser pulled 75 μm column with C18 resin. Peptides were quantified using the synchronous precursor selection (SPS-MS3) or HCD method for TMT quantitation with 120k MS1 resolving power, 50 ms max injection time and 100% AGC. MS2 spectra were selected using the top ten most abundant features with a charge state between 2-6 using CID (collision induced dissociation) in the ion trap. The AGC was set to 100% with an isolation width of 0.7. MS3 was performed on the top 10 most abundant MS2 features between 400-1600 amu with a collision energy of 55%, AGC of 250%, and 50k resolution. […]

Structures are written as SMILES. “Also recorded” adds a separate entry of the source. Counter-ions that a name gives are not always drawn.

Take `COc1ccc2cc(-c3cc(C)[n+](N(C)C(=O)OCCCCC[C@H]4SC[C@H]5NC(=O)N[C@H]54)c(C)c3)ccc2c1` (stereo in doubt) [pyridinium salt 2b, 4-(6-methoxynaphthalen-2-yl)-2,6-dimethyl-1-(methyl(((5-((3aR,4R,6aS)-2-oxohexahydro-1H-thieno[3,4-d]imidazol-4-yl)pentyl)oxy)carbonyl)amino)pyridin-1-ium tetrafluoroborate]: the “Western blot (streptavidin-HRP) proteome labeling profile of elutions” value (0-100 μM probe, with/without light, before digestion) was “concentration and optically dependent proteome labeling profiles; also recorded: dose-response profiles”. Under “100 μM probe, FIG. 17B”, the “percentage of unique enriched proteins (proteome coverage comparison of probes)” value is recorded as “about 69%”. The “number of proteins identified (from ≥2 unique peptides) showing ≥2-fold enrichment versus DMSO” value (about 100 μM probe, 5 mg/mL lysate, 60 min incubation, 20 min irradiation: 302 nm (1a), 320 nm (1b), 440 nm (2b)) was determined as 523.
